From PMC12751025, “α‑Aminoboronic Acid Moieties in Boro Dipeptides Modulate Proteasome Subunit Selectivity and Provide Access to Compounds with Potent Anticancer and Anti-Inflammatory Activity” (Journal of Medicinal Chemistry, 2025)
Values joined by “and” are separate entries in the source; they are usually repeats but may differ in a detail not shown here. Identical values can stand only once. Like-named read-outs stand apart in the source and are kept apart here.

Key:
β5i subunit of human iCP = β5i subunit of human iCP (Homo sapiens, UniProt P20618+P28062); assay: IC50 determination with fluorogenic substrate Ac-ANW-AMC; settings: for IC50: IC50 β5i
Procedure: (§1) The measurements of the residual activity of control compounds were carried out at final compound concentrations of 1 μM in the assay buffer (50 mM Tris-HCl, 0.5 mM ethylenediaminetetraacetic acid (EDTA), pH 7.4). Stock solutions of the compounds were prepared in DMSO. To the 35 μL of solution of the compound in the buffer, 35 μL of 0.4 nM human iCP (South Bay Bio, San Jose, CA, USA) or human cCP (Boston Biochem, Inc., Cambridge, MA, USA) was added. For assays evaluating the activity of β2c and β2i, the buffer was modified by adding the proteasomal activator PA28β (Boston Biochem, Inc., Cambridge, MA, USA) at a final concentration of 6 nM. […] The substrates used were acetyl-Nle-Pro-Nle-Asp-7-amino-4-methylcoumarin (Ac-nLPnLD-AMC, Bachem, Bubendorf, Switzerland) for β1c, acetyl-Pro-Ala-Leu-7-amino-4-methylcoumarin (Ac-PAL-AMC, Boston Biochem, Inc., Cambridge, MA, USA) for β1i, acetyl-Arg-Leu-Arg-7-amino-4-methylcoumarin (Ac-RLR-AMC, Bachem, Bubendorf, Switzerland) for β2c and β2i, acetyl-Trp-Leu-Ala-7-amino-4-methylcoumarin (Ac-WLA-AMC, Bachem, Bubendorf, Switzerland) for β5c, and acetyl-Ala-Asn-Trp-7-amino-4-methylcoumarin (Ac-ANW-AMC, Bachem, Bubendorf, Switzerland) for β5i. Progress of the reaction was measured using a BioTek Synergy HT microplate reader, monitoring fluorescence at 460 nm (excitation at 360 nm) for 60 min at 37 °C. The initial linear ranges were used to calculate the reaction velocity and determine the residual activity.
(§2) The final assay mixtures contained 0.4 nM human iCP or cCP in assay buffer (50 mM Tris-HCl, 0.5 mM EDTA, pH 7.4, addition of PA28β for β2c and β2i subunits). […] After incubation at 37 °C for 30 min, the reaction was initiated by the addition of the substrate Ac-nLPnLD-AMC for β1c, Ac-PAL-AMC for β1i, Ac-RLR-AMC for β2c and β2i, Ac-WLA-AMC for β5c, and Ac-ANW-AMC for β5i. Fluorescence was monitored at 460 nm (excitation at 360 nm) for 60 min at 37 °C. The reaction progress was recorded and the initial linear phases were used to determine the velocity. The IC50 values were calculated using GraphPad Prism software (GraphPad Software, San Diego, CA, USA), and the results represent the mean values of at least three independent determinations.

β1i subunit of human iCP = β1i subunit of human iCP (Homo sapiens, UniProt P28065+P40306); assay: IC50 determination with subunit-specific fluorogenic substrate Ac-PAL-AMC; settings: for IC50: IC50 β1i
Procedure: as §1, §2

β5c subunit of human cCP = molecular target: T1, β5c subunit of human cCP (Homo sapiens, UniProt P20618+P28074); assay: IC50 determination with fluorogenic substrate Ac-WLA-AMC; type: biochemical
T1 construct: purchased Boston Biochem, Inc
Procedure: as §1, §2

β1c subunit of human cCP = molecular target: T2, β1c subunit of human cCP (Homo sapiens, UniProt P28072+Q99436); assay: IC50 determination with subunit-specific fluorogenic substrate Ac-nLPnLD-AMC; type: biochemical
T2 construct: purchased Boston Biochem, Inc
Procedure: as §1, §2

[1] = test system: all subunits of the human cCP and iCP; assay: Subunit inhibition profile and preference across cCP and iCP subunits; type: biochemical; settings: for fold lower potency on the cCP counterparts of β1i and β5i: β1c, β5c vs β1i
Procedure: as §2

β2i subunit of human iCP = β2i subunit of human iCP (Homo sapiens, UniProt P40306+P49720); assay: IC50 determination with fluorogenic substrate Ac-RLR-AMC (PA28β added)
Procedure: as §1, §2

LPS-stimulated PBMCs = assay: Cytokine secretion, Cytometric Bead Array; type: cell-based, human; settings: 250 nM; 1 h pretreatment, LPS 1 μg/mL, 24 h; IL-1, IL-6, IL-8, IL-10, TNF-α
Procedure: PBMCs (1.5 × 10^6/mL) were plated in culture media in 96-well round-bottom plates. After a 60 min treatment with compounds at 37 °C and 5% CO2, cells were stimulated with LPS (Escherichia coli, O111:B4, 1 μg/mL, Sigma) for 24 h. Supernatants were then collected and analyzed for cytokine release by Human Inflammatory Cytokine Cytometric Bead Array (BD Biosciences, New Jersey, USA).

[2] = Solubility remark (exclusion from cell-based assays); type: physicochemical; settings: reason for not using in cell-based assays
β2c subunit of human cCP = molecular target: T3, β2c subunit of human cCP (Homo sapiens, UniProt P49720+Q99436); assay: IC50 determination with fluorogenic substrate Ac-RLR-AMC (PA28β added); type: biochemical
T3 construct: purchased Boston Biochem, Inc
Procedure: Stock solutions of the compounds were prepared in DMSO. To the 35 μL of solution of the compound in the buffer, 35 μL of 0.4 nM human iCP (South Bay Bio, San Jose, CA, USA) or human cCP (Boston Biochem, Inc., Cambridge, MA, USA) was added. For assays evaluating the activity of β2c and β2i, the buffer was modified by adding the proteasomal activator PA28β (Boston Biochem, Inc., Cambridge, MA, USA) at a final concentration of 6 nM. […] The substrates used were acetyl-Nle-Pro-Nle-Asp-7-amino-4-methylcoumarin (Ac-nLPnLD-AMC, Bachem, Bubendorf, Switzerland) for β1c, acetyl-Pro-Ala-Leu-7-amino-4-methylcoumarin (Ac-PAL-AMC, Boston Biochem, Inc., Cambridge, MA, USA) for β1i, acetyl-Arg-Leu-Arg-7-amino-4-methylcoumarin (Ac-RLR-AMC, Bachem, Bubendorf, Switzerland) for β2c and β2i, acetyl-Trp-Leu-Ala-7-amino-4-methylcoumarin (Ac-WLA-AMC, Bachem, Bubendorf, Switzerland) for β5c, and acetyl-Ala-Asn-Trp-7-amino-4-methylcoumarin (Ac-ANW-AMC, Bachem, Bubendorf, Switzerland) for β5i. Progress of the reaction was measured using a BioTek Synergy HT microplate reader, monitoring fluorescence at 460 nm (excitation at 360 nm) for 60 min at 37 °C. The initial linear ranges were used to calculate the reaction velocity and determine the residual activity.
as §2

β2c = settings: in parentheses in Table S2; SI reference list; read-out: IC50 β2c, previously published data; cited from earlier work
β2i = settings: in parentheses in Table S2; SI reference list; read-out: IC50 β2i, previously published data; cited from earlier work
β1i = settings: in parentheses in Table S2; SI reference list; read-out: IC50 β1i, previously published data; cited from earlier work
β1c = settings: in parentheses in Table S2, SI reference list, cited from earlier work
β5i = settings: in parentheses in Table S2; SI reference list; read-out: IC50 β5i, previously published data; cited from earlier work
β5c = settings: in parentheses in Table S2; SI reference list; read-out: IC50 β5c, previously published data; cited from earlier work
[3] = human iCP, mean of at least three experiments, NA: not active at 50 μM
[4] = human cCP, mean of at least three experiments, NA: not active at 50 μM
[5] = read-out: IC50 β1c, previously published data

Row | SMILES | IC50 (β5i subunit of human iCP; [3]) | IC50 (β1i subunit of human iCP; [3]) | IC50 (β5c subunit of human cCP; [4]) | IC50 (β1c subunit of human cCP; [4]) | IC50 (β2i subunit of human iCP) | IC50 (β2c subunit of human cCP; [4]) | other results
1 | O=C(N[C@@H](Cc1ccccc1)C(=O)N[C@H](B(O)O)c1ccccc1)c1cnccn1 [5a, ((R)-Phenyl((S)-3-Phenyl-2-(pyrazine-2-carboxamido)propanamido)methyl)boronic Acid] | 220 nM | 746 nM | 12800 nM | – | – | – | –
2 | Cc1ccc([C@H](NC(=O)[C@H](Cc2ccccc2)NC(=O)c2cnccn2)B(O)O)cc1 [5b, ((R)-((S)-3-Phenyl-2-(pyrazine-2-carboxamido)propanamido)(p-tolyl)methyl)boronic Acid] | 32 nM | 42 nM | 712 nM | 545 nM | 9800 nM | – | fold lower potency on the cCP counterparts of β1i and β5i [1]: 10–20 fold; Effect on secretion of cytokines in LPS-stimulated PBMCs (LPS-stimulated PBMCs): significantly diminished ability to affect cytokine release
3 | O=C(N[C@@H](Cc1ccccc1)C(=O)N[C@H](B(O)O)c1ccc(F)cc1)c1cnccn1 [5c, ((R)-(4-Fluorophenyl)((S)-3-phenyl-2-(pyrazine-2-carboxamido)propanamido)methyl)boronic Acid] | 32 nM | 38 nM | 225 nM | 526 nM | – | – | fold lower potency on the cCP counterparts of β1i and β5i [1]: 10–20 fold; Effect on secretion of cytokines in LPS-stimulated PBMCs (LPS-stimulated PBMCs): significantly diminished ability to affect cytokine release
4 | O=C(N[C@@H](Cc1ccccc1)C(=O)N[C@H](B(O)O)c1ccc(Cl)cc1)c1cnccn1 [5d, ((R)-(4-Chlorophenyl)((S)-3-phenyl-2-(pyrazine-2-carboxamido)propanamido)methyl)boronic Acid] | 3 nM | 17 nM | 114 nM | 897 nM | 74500 nM | 1850 nM | solubility [2]: limited solubility; IC50 for β5i, fold lower than for β5c (β5i subunit of human iCP; β5i vs β5c): 30 fold; IC50 for β1i, fold lower than for β1c (β1i subunit of human iCP; β1i vs β1c): 50 fold
5 | COc1ccc([C@H](NC(=O)[C@H](Cc2ccccc2)NC(=O)c2cnccn2)B(O)O)cc1 [5e, ((R)-(4-Methoxyphenyl)((S)-3-phenyl-2-(pyrazine-2-carboxamido)propanamido)methyl)boronic Acid] | 15 nM | 40 nM | 402 nM | 1340 nM | 10400 nM | 79000 nM | fold lower potency on the cCP counterparts of β1i and β5i [1]: 10–20 fold
6 | CCOC(=O)c1cccc([C@H](NC(=O)[C@H](Cc2ccccc2)NC(=O)c2cnccn2)B(O)O)c1 [5f, ((R)-(3-(Ethoxycarbonyl)phenyl)((S)-3-phenyl-2-(pyrazine-2-carboxamido)propanamido)methyl)boronic Acid] | 1300 nM | 22400 nM | 3300 nM | – | – | – | –
7 | O=C(N[C@@H](Cc1ccccc1)C(=O)N[C@H](B(O)O)c1ccc2c(c1)OCO2)c1cnccn1 [5g, ((R)-Benzo[d][1,3]dioxol-5-yl((S)-3-phenyl-2-(pyrazine-2-carboxamido)propanamido)methyl)boronic Acid] | 18 nM | 201 nM | 183 nM | 315 nM | 8600 nM | 45000 nM | IC50 for β5i, fold lower than for β1i, β1c, and β5c (β5i subunit of human iCP): 10 fold
8 | O=C(N[C@@H](Cc1ccccc1)C(=O)N[C@H](B(O)O)c1ccc(-c2ccccc2)cc1)c1cnccn1 [5h, ((R)-[1,1′-Biphenyl]-4-yl((S)-3-phenyl-2-(pyrazine-2-carboxamido)propanamido)methyl)boronic Acid] | 24 nM | 270 nM | 12 nM | 1310 nM | 260 nM | – | IC50 (β1c subunit of human cCP; own assay): > 1000 nM; solubility [2]: limited solubility; IC50 for both β5 subunits, fold better than IC50 for β1i [1]: 10–20 fold; IC50 β2c (β2c subunit of human cCP; [4]): no detectable inhibition
9 | O=C(N[C@@H](Cc1ccccc1)C(=O)N[C@@H](Cc1ccccc1)B(O)O)c1cnccn1 [5i, ((R)-2-Phenyl-1-((S)-3-phenyl-2-(pyrazine-2-carboxamido)propanamido)ethyl)boronic Acid] | 17 nM | 54 nM | 54 nM | 235 nM | 3400 nM | 4900 nM | –
10 | CC[C@H](NC(=O)[C@H](Cc1ccccc1)NC(=O)c1cnccn1)B(O)O [5j, ((R)-1-((S)-3-phenyl-2-(pyrazine-2-carboxamido)propanamido)propyl)boronic Acid] | 19 nM | 2 nM | 11 nM | 21 nM | 1280 nM | 3400 nM | –
11 | O=C(N[C@@H](Cc1ccccc1)C(=O)N[C@H](B(O)O)C1CC1)c1cnccn1 [5k, ((R)-Cyclopropyl((S)-3-phenyl-2-(pyrazine-2-carboxamido)propanamido)methyl)boronic Acid] | 9 nM | 172 nM | 5 nM | 827 nM | 499 nM | 440 nM | fold lower potency on β1c and β1i ([1]; compared with bortezomib): approximately 80 fold
12 | CC(C)(C)ONC(=O)C[C@H](NC(=O)CCc1ccccc1)C(=O)N[C@@H](Cc1ccc(F)cc1)C(=O)NCc1cccc2ccccc12 [DPLG3] | – | – | – | – | – | – | IC50 (β2c): > 33300 nM; IC50 (β2i): > 33300 nM; IC50 (β1i): > 33300 nM; IC50 (β1i subunit of human iCP; own assay): > 1000 nM; IC50 (β1c; [5]): > 33300 nM; IC50 (β5i): 4.5 nM
13 | C[C@]1(C(=O)[C@H](Cc2ccccc2)NC(=O)[C@H](CO)NC(=O)c2cccc(=O)[nH]2)CO1 [KZR-504] | – | – | – | – | > 1000 nM | – | IC50 (β2c): > 250000 nM; IC50 (β2i): > 250000 nM; IC50 (β2c subunit of human cCP; own assay): > 1000 nM; IC50 (β1i): 51 nM; IC50 (β1i subunit of human iCP; own assay): 59 ± 11 nM; IC50 (β5c): 6900 nM; IC50 (β5i): 4300 nM
14 | COc1ccc([C@@H](O)[C@H](NC(=O)[C@H](C)NC(=O)CN2CCOCC2)C(=O)N[C@@H](CC2=CCCC2)C(=O)[C@@]2(C)CO2)cc1 [KZR-616, (2S,3R)-N-((S)-3-(Cyclopent-1-En-1-Yl)-1-((R)-2-Methyloxiran-2-yl)-1-Oxopropan-2-yl)-3-Hydroxy-3-(4-Methoxyphenyl)-2-((S)-2-(2-Morpholinoacetamido)Propanamido)Propenamide, reference compound] | – | – | – | – | 338 ± 122 nM | – | IC50 (β1c subunit of human cCP; own assay): > 1000 nM; IC50 (β2c): 604 nM; IC50 (β2i): 623 nM; IC50 (β2c subunit of human cCP; own assay): 403 ± 151 nM; IC50 (β5i subunit of human iCP; own assay): 26 ± 21 nM; IC50 (β1i): 131 nM; Effect on secretion of cytokines in LPS-stimulated PBMCs (LPS-stimulated PBMCs): reduced the secretion of IL-1, IL-6, IL-8, IL-10, and TNF-α to a significant degree; IC50 (β1i subunit of human iCP; own assay): 96 ± 32 nM; IC50 (β1c; [5]): > 10600 nM; IC50 (β5c): 688 nM; IC50 (β5i): 39 nM; IC50 (β5c subunit of human cCP; own assay): 426 ± 48 nM
15 | COc1ccc(C[C@H](NC(=O)[C@H](C)NC(=O)CN2CCOCC2)C(=O)N[C@@H](CC2CCCC3CCCCC32)C(=O)[C@@]2(C)CO2)cc1 (stereo partly shown) [Lu-002i] | – | – | – | – | – | – | IC50 (β1i): > 100000 nM; IC50 (β1c; [5]): > 100000 nM; IC50 (β5c): > 100000 nM; IC50 (β5i): > 100000 nM
16 | CC(C)C[C@H](NC(=O)C(C)(C)NC(=O)c1ccccc1C(F)(F)F)B(O)O [ML604440, reference compound] | – | – | – | – | > 1000 nM | – | IC50 (β1c subunit of human cCP; own assay): > 1000 nM; IC50 (β2c subunit of human cCP; own assay): > 1000 nM; IC50 (β5i subunit of human iCP; own assay): > 1000 nM; IC50 (β1i): ~12.5 nM and 12.5 nM; IC50 (β1i subunit of human iCP; own assay): 8 ± 5 nM; IC50 (β5c): > 1000 nM; IC50 (β5i): > 1000 nM; IC50 (β5c subunit of human cCP; own assay): > 1000 nM
17 | COc1ccc(C[C@H](NC(=O)[C@H](C)NC(=O)CN2CCOCC2)C(=O)N[C@@H](Cc2ccccc2)C(=O)[C@@]2(C)CO2)cc1 [ONX-0914] | – | – | – | – | – | – | IC50 (β2c): 1100 nM; Effect on secretion of cytokines in LPS-stimulated PBMCs (LPS-stimulated PBMCs): Very similar result; IC50 (β1c; [5]): > 10000 nM; IC50 (β5c): 54 nM
18 | CC(C)C[C@H](NC(=O)[C@H](CCc1ccccc1)NC(=O)CN1CCOCC1)C(=O)N[C@@H](Cc1ccccc1)C(=O)N[C@@H](CC(C)C)C(=O)[C@@]1(C)CO1 [carfilzomib] | – | – | – | – | – | – | IC50 (β1c; read-out: IC50 β1c, literature data): 13 nM
